According to US9458118B2, “Sodium channel modulators for the treatment of pain and diabetes” (CHROMOCELL CORPORATION, priority 2013, dated 2016):

How the values were obtained:
[1] = tested on: rats; assay: Acetic acid writhing model in rats; format: in vivo, rat; details: doses of 10 to 30 mg/kg, intraperitoneal route
Experimental: The Acetic Acid Writhing Model is associated with visceral pain (abdominal pain, such as stomach pain, and pain caused by, for example, bile duct congestion and kidney stones). A writhing test assesses acute peritoneovisceral pain.
After acclimation of 2-3 days, a test compound, positive control or vehicle control was administered by intraperitoneal injection (i.p.) or by oral gavage 15-30 minutes prior to administration of acetic acid. The time of administration of test compound was recorded. For mice: Method A: 0.6% Acetic acid solution in saline was injected i.p. in a volume of 10 ml/kg; Method B: 1.2% Acetic acid solution in saline was injected i.p. in a volume of 5 ml/kg. For rats: 4% acetic acid in saline was injected i.p in a volume of 2 ml/kg at T=0 minutes. Each animal was placed in a clear plastic cage. At T=5 minutes, the number of writhing movements was counted over a 45 minute period. Alternatively, the writhing movements were counted over a 5-minute period and repeated every 5 minutes, starting at T=5 minutes over a 45-minute period.
For each compound tested, the individual score was obtained by calculating the accumulated writhing movements for the time period studied. […]

[2] = tested on: diabetic rats; assay: Anti-diabetic and analgesic effect after chronic dosing in the rat STZ model of diabetes; format: in vivo
Experimental: 250-350 g male Sprague-Dawley rats from appropriate animal resources were used. Type I diabetes was induced by a single injection, (intraperitoneally, intravenously or intramuscularly) of 50-100 mg/kg of streptozotocin (STZ, Sigma Chemicals, St. Louis, Mo. or VWR) freshly dissolved in sodium citrate (0.01 M, pH 4.5). Sham animals were given either saline or same vehicle injection. Following a wait time of about two days, inducement of diabetes was confirmed in STZ-injected rats by measuring the plasma glucose concentrations in blood samples from the tail vein after a fast of 6 hours. The glucose level was assayed using a mini glucose monitor (kit for AlphaTRAK 2 meter, available from Abbott Laboratories). Screening for hyperglycemia in STZ-injected animals was done, with only animals with a final blood glucose level ≧300 mg/dl being selected for the study. Glucose levels in the sham animals remained normal. Other parameters (water intake, food intake, and bodyweight) were monitored before the treatment with a test compound and after the cessation of the treatment.
A Compound provided herein is tested in the rat STZ model of diabetes by chronic administration of the Compound for at least 7 days to evaluate analgesic and antidiabetic effects of the Compound. The analgesic effect of the Compound can be evaluated using behavioral tests (e.g., von Frey test, plantar test, and paw pressure test described herein below). The anti-diabetic effect of the Compound can be evaluated based on the improvement in the glucose level, food intake, water intake in the compound treated group compared to the untreated vehicle group and the normal, non-diabetic sham control group.
Diabetes mellitus was induced in rats as described in the section entitled “The Streptozotocin (STZ)-Induced Model of Diabetic Neuropathy” above.
The baseline glucose levels, daily food and water intake and behavioral tests (von Frey, paw pressure and plantar tests) were measured for each animal once weekly for 28 weeks, and once every 2-4 weeks for an additional 28-30 weeks. At a selected week (started from week 6) for a compound test, diabetic rats were divided into two test groups: a vehicle control group and a test compound treated group (n=10 each group). A sham group (saline only without STZ i.p. injection, n=10) was added as a normal, non-diabetic control group. To minimize animal stress associated with repeated daily handling, the compound treated diabetic group of animals received the test compound at a daily dose of 60 mg/kg in their drinking water containing 2% PEG600 and 1% glycofurol (the test compound concentration in the drinking water was based on the individual animal's average daily water consumption as determined the pre-dosing period, which averaged 0.1-0.11 mg/ml). The vehicle control group received drinking water containing 2% PEG600 and 1% glycofurol without the test compound. The treatment continued for 9 days. On day 10 drinking water with test compound or vehicle (2% PEG600 and 1% glycofurol) was replaced with plain drinking water in all groups. The monitoring of glucose levels, food and water intake as well as behavior tests continued for additional 28-30 weeks. […] A gradual, significant reversal of up to 90% of mechanical allodynia (von Frey test) was achieved after 9 days of treatment.
FIGS. 1-3 show food intake, glucose level, and water intake, respectively, for the vehicle control group, the test compound treated group (compound 49, 60 mg/kg/day), and the sham group. […] The significant reduction of food intake, glucose level, and water intake of the compound treated group compared to the vehicle control group continues through week 52. […] Since the standard deviation in the sham groups are less than 5%, no error bars are shown.

[3] = tested on: Sprague-Dawley rats; assay: Partial sciatic nerve ligation (PSNL) model, behavioral tests; format: in vivo, rat; details: oral route, measured 30 minutes post dose
Text: 250-350 g male Sprague-Dawley rats from appropriate animal resources were anesthetized with 2.5% isoflurane. A hind leg was shaved, and the skin was sterilized with 0.5% iodine and 75% alcohol. All surgical instruments were sterilized before surgery and between animals. An incision (1 cm) was made at the middle of the thigh in parallel with the muscle and sciatic nerve distribution. The muscle was exposed and dissected at the joint of two muscles (biceps femoris) indicated by the light colored (white) fascia line. […]
The analgesic effect of the test compound was expressed as a percent recovery (% Recovery) relative to the sham control group baseline and calculated according to the formula: % Recovery=100%−{[(sham mean-test compound mean)/(sham mean-vehicle mean)]×100%} wherein “sham mean” refers to average score in the sham-operated group; “test compound mean” refers to average score in the PSNL-group (animals with partial sciatic nerve ligation) or diabetic group (animals treated with STZ) treated with a test compound; “vehicle mean” refers to average score in the PSNL-group or diabetic group treated with vehicle only. […]
Animals were placed under clear plastic boxes above a wire mesh floor, which allowed full access to the paws. […] Mechanical paw withdrawal thresholds (PWTs) were measured with the up-down testing paradigm. […]

[4] = biological target: T1, NaV1.7 (Homo sapiens, UniProt Q15858); assay: FDSS membrane potential in-vitro assay; format: cell-based; details: stimulation with veratridine and scorpion venom
T1 construct: expressed in transfected cells
Experimental: In vitro assays were performed in recombinant cell line that stably express a heterotrimeric protein of interest from an introduced nucleic acid encoding the alpha subunit (hNav1.7, SCN9A), the beta subunit (SCNB1) and the beta subunit (SCNB2). The cell line was engineered using Human Embryonic Kidney 293 cells as host background. Additional cell lines stably expressing recombinant Nav1.7 or Nav1.5 alpha subunit alone or in combination with various beta subunits can also be used in in-vitro assays. […]
Blue membrane potential dye (Molecular Devices Inc.), or membrane potential-sensitive dye, HLB021-152 (AnaSpec) were combined with a fluorescence quencher, e.g., Dipicrylamine (DPA), Acid Violet 17 (AV 17), Diazine Black (DB), HLB30818, FD and C Black Shade, Trypan Blue, Bromophenol Blue, HLB30701, HLB30702, HLB30703, Nitrazine Yellow, Nitro Red, DABCYL (Molecular Probes), FD and C Red NO. […]
The cells were incubated with the membrane potential dye for 45-60 mins at 37° C. The dye-loaded assay plates were then placed in the high-throughput fluorescent plate reader (Hamamatsu FDSS). The kinetic read was started with assay plate imaging every second. […]
Control response elicited by veratridine and scorpion venom with buffer only (without test compounds added) was taken as the maximal response. […] The data were analyzed using GraphPad Prism software to determine the […] value for the test compound. […]

[5] = diabetic rats, 60 mg/kg/day in drinking water, 9 days
[6] = measured on day 11, two days after compound withdrawal

T1 sequence (Q15858 whole entry): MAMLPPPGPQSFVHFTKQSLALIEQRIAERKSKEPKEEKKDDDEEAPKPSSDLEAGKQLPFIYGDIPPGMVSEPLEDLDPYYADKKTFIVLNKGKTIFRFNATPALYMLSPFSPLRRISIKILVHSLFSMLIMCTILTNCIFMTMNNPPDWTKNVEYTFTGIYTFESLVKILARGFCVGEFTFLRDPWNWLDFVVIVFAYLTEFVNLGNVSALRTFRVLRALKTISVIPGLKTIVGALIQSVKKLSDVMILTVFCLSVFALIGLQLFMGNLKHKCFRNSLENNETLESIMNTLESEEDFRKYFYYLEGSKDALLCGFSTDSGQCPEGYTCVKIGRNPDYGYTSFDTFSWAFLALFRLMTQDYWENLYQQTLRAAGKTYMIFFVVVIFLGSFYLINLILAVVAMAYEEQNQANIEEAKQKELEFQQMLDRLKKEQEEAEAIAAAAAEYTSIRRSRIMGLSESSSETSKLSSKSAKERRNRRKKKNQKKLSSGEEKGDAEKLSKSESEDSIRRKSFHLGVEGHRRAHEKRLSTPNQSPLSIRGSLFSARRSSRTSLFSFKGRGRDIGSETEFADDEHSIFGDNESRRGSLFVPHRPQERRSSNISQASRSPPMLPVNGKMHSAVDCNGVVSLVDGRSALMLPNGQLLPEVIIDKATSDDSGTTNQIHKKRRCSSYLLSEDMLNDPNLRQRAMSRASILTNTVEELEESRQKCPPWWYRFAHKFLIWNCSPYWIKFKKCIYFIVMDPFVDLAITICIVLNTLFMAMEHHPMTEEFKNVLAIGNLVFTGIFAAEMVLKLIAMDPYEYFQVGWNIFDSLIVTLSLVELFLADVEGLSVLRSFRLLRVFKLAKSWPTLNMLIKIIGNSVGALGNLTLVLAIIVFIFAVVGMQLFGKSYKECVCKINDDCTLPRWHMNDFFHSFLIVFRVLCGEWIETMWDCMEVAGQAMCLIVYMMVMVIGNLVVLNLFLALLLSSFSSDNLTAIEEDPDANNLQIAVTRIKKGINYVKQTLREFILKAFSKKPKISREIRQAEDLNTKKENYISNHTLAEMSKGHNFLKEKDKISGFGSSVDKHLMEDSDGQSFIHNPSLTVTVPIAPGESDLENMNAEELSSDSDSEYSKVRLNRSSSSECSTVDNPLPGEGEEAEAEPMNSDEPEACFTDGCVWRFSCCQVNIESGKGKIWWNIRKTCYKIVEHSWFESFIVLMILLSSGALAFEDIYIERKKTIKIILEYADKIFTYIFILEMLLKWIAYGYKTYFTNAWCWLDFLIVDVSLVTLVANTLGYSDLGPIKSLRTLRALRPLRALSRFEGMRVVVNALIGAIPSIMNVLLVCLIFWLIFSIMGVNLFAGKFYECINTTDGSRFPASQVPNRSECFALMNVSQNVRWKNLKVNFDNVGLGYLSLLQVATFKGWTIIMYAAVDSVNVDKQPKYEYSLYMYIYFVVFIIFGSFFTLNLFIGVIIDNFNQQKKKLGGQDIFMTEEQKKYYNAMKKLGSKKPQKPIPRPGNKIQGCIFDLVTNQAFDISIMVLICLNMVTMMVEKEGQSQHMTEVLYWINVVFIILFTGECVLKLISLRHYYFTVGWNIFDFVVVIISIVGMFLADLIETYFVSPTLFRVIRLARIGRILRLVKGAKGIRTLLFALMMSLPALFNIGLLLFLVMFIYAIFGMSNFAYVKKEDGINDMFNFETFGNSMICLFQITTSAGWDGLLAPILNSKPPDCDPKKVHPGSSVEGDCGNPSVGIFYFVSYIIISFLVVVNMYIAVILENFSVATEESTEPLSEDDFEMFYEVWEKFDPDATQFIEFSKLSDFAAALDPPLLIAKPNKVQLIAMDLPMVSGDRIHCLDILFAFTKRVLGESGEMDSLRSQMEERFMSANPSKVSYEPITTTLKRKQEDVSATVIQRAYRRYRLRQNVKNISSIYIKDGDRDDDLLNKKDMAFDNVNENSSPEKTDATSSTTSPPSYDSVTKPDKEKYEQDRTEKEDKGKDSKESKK
T1 sequence (Q07699 19-218 partner): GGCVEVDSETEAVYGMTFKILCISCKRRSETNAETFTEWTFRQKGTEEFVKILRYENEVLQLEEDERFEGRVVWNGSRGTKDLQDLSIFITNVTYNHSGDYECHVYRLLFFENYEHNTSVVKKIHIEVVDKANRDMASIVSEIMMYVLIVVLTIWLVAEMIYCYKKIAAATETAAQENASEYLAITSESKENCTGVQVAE
T1 sequence (O60939 30-215 partner): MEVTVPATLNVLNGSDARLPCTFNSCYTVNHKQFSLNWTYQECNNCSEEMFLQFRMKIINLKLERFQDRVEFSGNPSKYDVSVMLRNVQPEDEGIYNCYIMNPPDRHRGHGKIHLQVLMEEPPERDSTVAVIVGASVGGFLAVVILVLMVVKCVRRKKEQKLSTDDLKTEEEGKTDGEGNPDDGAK

Compound	reduction in pain (writhing) relative to vehicle control [1]	food intake compared to the vehicle control group ([2]; FIG. 1, 60 mg/kg/day for 9 days, reduction continues through week 52)	glucose level compared to the vehicle control group ([2]; FIG. 2, 60 mg/kg/day for 9 days, reduction continues through week 52)	water intake compared to the vehicle control group ([2]; FIG. 3, 60 mg/kg/day for 9 days, reduction continues through week 52)	general appearance and/or health ([2]; after the treatment stopped on day 9)	mechanical pain (paw pressure test) [2, 5]	tachyphylaxis [2, 5]	thermal pain (plantar test) [2, 5]	paw pressure test threshold after compound withdrawal [2, 6]	plantar test threshold after compound withdrawal [2, 6]	effect in the tactile allodynia test relative to vehicle control [3]	IC50 [4]
O=C(O)CNC(=O)c1cc(-c2cc(Cl)ccc2Oc2cc(F)c(S(=O)(=O)Nc3ncns3)cc2Cl)ccn1 [Compound 2, 2-(4-(2-(4-(N-(1,2,4-thiadiazol-5-yl)sulfamoyl)-2-chloro-5-fluorophenoxy)-5-chlorophenyl)picolinamido)acetic acid]	48-58%											
NC(=O)CNCCCc1cc(Cl)ccc1Oc1cc(F)c(S(=O)(=O)Nc2cscn2)cc1Cl [Compound 49, 2-((3-(5-chloro-2-(2-chloro-5-fluoro-4-(N-(thiazol-4-yl)sulfamoyl)phenoxy)phenyl)propyl)amino)acetamide]		significantly reduced	significantly reduced	significantly reduced	improvements in general appearance and/or health	rapid and sustained improvement	no tachyphylaxis	rapid and sustained improvement	returned to the pretreatment baseline	returned to the pretreatment baseline	no significant effect	
C#CCN(CCCc1cc(Cl)ccc1Oc1cc(F)c(S(=O)(=O)Nc2nccs2)cc1Cl)CC(=O)O [Compound 54, 2-((3-(5-chloro-2-(2-chloro-5-fluoro-4-(N-(thiazol-2-yl)sulfamoyl)phenoxy)phenyl)propyl)(prop-2-yn-1-yl)amino)acetic acid]											no significant effect	< 100 nM
